Experimental data reported in PubChem BioAssay (NCI).
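How tested: cells in 96-well plates exposed to compound for 48 hours at five concentrations. The concentration for full growth arrest is given as TGI.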

system: NCI-H23 lung; experiment: inhibition of tumour cell growth, NCI panel, 48 h

Compound | TGI [µM]
C=C(c1ccccc1)C1ON(C)CCc2cc(OC)c(OC)cc21 (stereo unspecified) | > 100
Cc1c2cnccc2c(C)c2c1[nH]c1ccc(O)cc12 | 8.25
C=C1C(=O)C([Si](C)(C)C)=C2C=C(C)C3(CC3)C12C (stereo unspecified) | > 100
NC(=O)c1cc2ccccc2oc1=Nc1ccccc1 | > 100

system: SF-268 CNS; experiment: inhibition of tumour cell growth, NCI panel, 48 h

Compound | TGI [µM]
C=C(c1ccccc1)C1ON(C)CCc2cc(OC)c(OC)cc21 (stereo unspecified) | > 100
Cc1c2cnccc2c(C)c2c1[nH]c1ccc(O)cc12 | > 10
C=C1C(=O)C([Si](C)(C)C)=C2C=C(C)C3(CC3)C12C (stereo unspecified) | > 100
NC(=O)c1cc2ccccc2oc1=Nc1ccccc1 | > 100

system: A498 renal; experiment: inhibition of tumour cell growth, NCI panel, 48 h

Compound | TGI [µM]
C=C(c1ccccc1)C1ON(C)CCc2cc(OC)c(OC)cc21 (stereo unspecified) | > 100
C=C1C(=O)C([Si](C)(C)C)=C2C=C(C)C3(CC3)C12C (stereo unspecified) | > 100
NC(=O)c1cc2ccccc2oc1=Nc1ccccc1 | > 100

system: HOP-62 NSCLC; experiment: inhibition of tumour cell growth, NCI panel, 48 h

Compound | TGI [µM]
C=C(c1ccccc1)C1ON(C)CCc2cc(OC)c(OC)cc21 (stereo unspecified) | > 100
Cc1c2cnccc2c(C)c2c1[nH]c1ccc(O)cc12 | 2.75
C=C1C(=O)C([Si](C)(C)C)=C2C=C(C)C3(CC3)C12C (stereo unspecified) | > 100
NC(=O)c1cc2ccccc2oc1=Nc1ccccc1 | > 100

system: MDA-N; experiment: inhibition of tumour cell growth, NCI panel, 48 h

Compound | TGI [µM]
C=C(c1ccccc1)C1ON(C)CCc2cc(OC)c(OC)cc21 (stereo unspecified) | > 100
Cc1c2cnccc2c(C)c2c1[nH]c1ccc(O)cc12 | > 10
C=C1C(=O)C([Si](C)(C)C)=C2C=C(C)C3(CC3)C12C (stereo unspecified) | > 100
NC(=O)c1cc2ccccc2oc1=Nc1ccccc1 | > 100

system: HCT-116 colon; experiment: inhibition of tumour cell growth, NCI panel, 48 h

Compound | TGI [µM]
C=C(c1ccccc1)C1ON(C)CCc2cc(OC)c(OC)cc21 (stereo unspecified) | > 100
Cc1c2cnccc2c(C)c2c1[nH]c1ccc(O)cc12 | 2.2
C=C1C(=O)C([Si](C)(C)C)=C2C=C(C)C3(CC3)C12C (stereo unspecified) | > 100
NC(=O)c1cc2ccccc2oc1=Nc1ccccc1 | > 100

system: HL-60(TB) leukemia; experiment: inhibition of tumour cell growth, NCI panel, 48 h

Compound | TGI [µM]
C=C(c1ccccc1)C1ON(C)CCc2cc(OC)c(OC)cc21 (stereo unspecified) | > 100
Cc1c2cnccc2c(C)c2c1[nH]c1ccc(O)cc12 | 2.98
C=C1C(=O)C([Si](C)(C)C)=C2C=C(C)C3(CC3)C12C (stereo unspecified) | 34.8
NC(=O)c1cc2ccccc2oc1=Nc1ccccc1 | > 100

system: NCI-H226 lung; experiment: inhibition of tumour cell growth, NCI panel, 48 h

Compound | TGI [µM]
C=C(c1ccccc1)C1ON(C)CCc2cc(OC)c(OC)cc21 (stereo unspecified) | > 100
Cc1c2cnccc2c(C)c2c1[nH]c1ccc(O)cc12 | > 10
C=C1C(=O)C([Si](C)(C)C)=C2C=C(C)C3(CC3)C12C (stereo unspecified) | > 100
NC(=O)c1cc2ccccc2oc1=Nc1ccccc1 | > 100

system: UO-31 renal; experiment: inhibition of tumour cell growth, NCI panel, 48 h

Compound | TGI [µM]
C=C(c1ccccc1)C1ON(C)CCc2cc(OC)c(OC)cc21 (stereo unspecified) | > 100
C=C1C(=O)C([Si](C)(C)C)=C2C=C(C)C3(CC3)C12C (stereo unspecified) | > 100

system: CCRF-CEM leukemia; experiment: inhibition of tumour cell growth, NCI panel, 48 h

Compound | TGI [µM]
C=C(c1ccccc1)C1ON(C)CCc2cc(OC)c(OC)cc21 (stereo unspecified) | > 100
Cc1c2cnccc2c(C)c2c1[nH]c1ccc(O)cc12 | > 10
C=C1C(=O)C([Si](C)(C)C)=C2C=C(C)C3(CC3)C12C (stereo unspecified) | 11
NC(=O)c1cc2ccccc2oc1=Nc1ccccc1 | > 100

system: TK-10 renal; experiment: inhibition of tumour cell growth, NCI panel, 48 h

Compound | TGI [µM]
C=C(c1ccccc1)C1ON(C)CCc2cc(OC)c(OC)cc21 (stereo unspecified) | > 100
Cc1c2cnccc2c(C)c2c1[nH]c1ccc(O)cc12 | > 10
C=C1C(=O)C([Si](C)(C)C)=C2C=C(C)C3(CC3)C12C (stereo unspecified) | > 100

system: MALME-3M melanoma; experiment: inhibition of tumour cell growth, NCI panel, 48 h

Compound | TGI [µM]
C=C(c1ccccc1)C1ON(C)CCc2cc(OC)c(OC)cc21 (stereo unspecified) | > 100
Cc1c2cnccc2c(C)c2c1[nH]c1ccc(O)cc12 | 8.28
C=C1C(=O)C([Si](C)(C)C)=C2C=C(C)C3(CC3)C12C (stereo unspecified) | 78.7
NC(=O)c1cc2ccccc2oc1=Nc1ccccc1 | > 100

system: DU-145 prostate; experiment: inhibition of tumour cell growth, NCI panel, 48 h

Compound | TGI [µM]
C=C(c1ccccc1)C1ON(C)CCc2cc(OC)c(OC)cc21 (stereo unspecified) | > 100
Cc1c2cnccc2c(C)c2c1[nH]c1ccc(O)cc12 | 5.83
C=C1C(=O)C([Si](C)(C)C)=C2C=C(C)C3(CC3)C12C (stereo unspecified) | > 100
NC(=O)c1cc2ccccc2oc1=Nc1ccccc1 | > 100

system: OVCAR-3 ovarian; experiment: inhibition of tumour cell growth, NCI panel, 48 h

Compound | TGI [µM]
C=C(c1ccccc1)C1ON(C)CCc2cc(OC)c(OC)cc21 (stereo unspecified) | > 100
Cc1c2cnccc2c(C)c2c1[nH]c1ccc(O)cc12 | 3.91
C=C1C(=O)C([Si](C)(C)C)=C2C=C(C)C3(CC3)C12C (stereo unspecified) | > 100
NC(=O)c1cc2ccccc2oc1=Nc1ccccc1 | > 100

system: UACC-257 melanoma; experiment: inhibition of tumour cell growth, NCI panel, 48 h

Compound | TGI [µM]
C=C(c1ccccc1)C1ON(C)CCc2cc(OC)c(OC)cc21 (stereo unspecified) | > 100
Cc1c2cnccc2c(C)c2c1[nH]c1ccc(O)cc12 | > 10
C=C1C(=O)C([Si](C)(C)C)=C2C=C(C)C3(CC3)C12C (stereo unspecified) | > 100
NC(=O)c1cc2ccccc2oc1=Nc1ccccc1 | > 100

system: T-47D breast; experiment: inhibition of tumour cell growth, NCI panel, 48 h

Compound | TGI [µM]
C=C(c1ccccc1)C1ON(C)CCc2cc(OC)c(OC)cc21 (stereo unspecified) | > 100
Cc1c2cnccc2c(C)c2c1[nH]c1ccc(O)cc12 | > 10
C=C1C(=O)C([Si](C)(C)C)=C2C=C(C)C3(CC3)C12C (stereo unspecified) | > 100
NC(=O)c1cc2ccccc2oc1=Nc1ccccc1 | > 100

system: HOP-92 NSCLC; experiment: inhibition of tumour cell growth, NCI panel, 48 h

Compound | TGI [µM]
C=C(c1ccccc1)C1ON(C)CCc2cc(OC)c(OC)cc21 (stereo unspecified) | > 100
NC(=O)c1cc2ccccc2oc1=Nc1ccccc1 | > 100

system: 786-0 renal; experiment: inhibition of tumour cell growth, NCI panel, 48 h

Compound | TGI [µM]
C=C(c1ccccc1)C1ON(C)CCc2cc(OC)c(OC)cc21 (stereo unspecified) | > 100
Cc1c2cnccc2c(C)c2c1[nH]c1ccc(O)cc12 | 1.42
C=C1C(=O)C([Si](C)(C)C)=C2C=C(C)C3(CC3)C12C (stereo unspecified) | > 100
NC(=O)c1cc2ccccc2oc1=Nc1ccccc1 | > 100

system: M14 melanoma; experiment: inhibition of tumour cell growth, NCI panel, 48 h

Compound | TGI [µM]
C=C(c1ccccc1)C1ON(C)CCc2cc(OC)c(OC)cc21 (stereo unspecified) | > 100
Cc1c2cnccc2c(C)c2c1[nH]c1ccc(O)cc12 | > 10
C=C1C(=O)C([Si](C)(C)C)=C2C=C(C)C3(CC3)C12C (stereo unspecified) | > 100
NC(=O)c1cc2ccccc2oc1=Nc1ccccc1 | > 100

system: SK-MEL-5 melanoma; experiment: inhibition of tumour cell growth, NCI panel, 48 h

Compound | TGI [µM]
C=C(c1ccccc1)C1ON(C)CCc2cc(OC)c(OC)cc21 (stereo unspecified) | 66
Cc1c2cnccc2c(C)c2c1[nH]c1ccc(O)cc12 | > 10
C=C1C(=O)C([Si](C)(C)C)=C2C=C(C)C3(CC3)C12C (stereo unspecified) | > 100
NC(=O)c1cc2ccccc2oc1=Nc1ccccc1 | > 100

system: OVCAR-8 ovarian; experiment: inhibition of tumour cell growth, NCI panel, 48 h

Compound | TGI [µM]
C=C(c1ccccc1)C1ON(C)CCc2cc(OC)c(OC)cc21 (stereo unspecified) | > 100
Cc1c2cnccc2c(C)c2c1[nH]c1ccc(O)cc12 | 3.41
C=C1C(=O)C([Si](C)(C)C)=C2C=C(C)C3(CC3)C12C (stereo unspecified) | > 100
NC(=O)c1cc2ccccc2oc1=Nc1ccccc1 | > 100

system: SR leukemia; experiment: inhibition of tumour cell growth, NCI panel, 48 h

Compound | TGI [µM]
C=C(c1ccccc1)C1ON(C)CCc2cc(OC)c(OC)cc21 (stereo unspecified) | > 100
Cc1c2cnccc2c(C)c2c1[nH]c1ccc(O)cc12 | 2.88
C=C1C(=O)C([Si](C)(C)C)=C2C=C(C)C3(CC3)C12C (stereo unspecified) | 11.7
NC(=O)c1cc2ccccc2oc1=Nc1ccccc1 | > 100

system: CAKI-1 renal; experiment: inhibition of tumour cell growth, NCI panel, 48 h

Compound | TGI [µM]
C=C(c1ccccc1)C1ON(C)CCc2cc(OC)c(OC)cc21 (stereo unspecified) | > 100
Cc1c2cnccc2c(C)c2c1[nH]c1ccc(O)cc12 | > 10
C=C1C(=O)C([Si](C)(C)C)=C2C=C(C)C3(CC3)C12C (stereo unspecified) | > 100
NC(=O)c1cc2ccccc2oc1=Nc1ccccc1 | > 100

system: SF-539 CNS; experiment: inhibition of tumour cell growth, NCI panel, 48 h

Compound | TGI [µM]
C=C(c1ccccc1)C1ON(C)CCc2cc(OC)c(OC)cc21 (stereo unspecified) | > 100
Cc1c2cnccc2c(C)c2c1[nH]c1ccc(O)cc12 | 2.41
NC(=O)c1cc2ccccc2oc1=Nc1ccccc1 | > 100

system: NCI/ADR-RES ovarian; experiment: inhibition of tumour cell growth, NCI panel, 48 h

Compound | TGI [µM]
C=C(c1ccccc1)C1ON(C)CCc2cc(OC)c(OC)cc21 (stereo unspecified) | > 100
Cc1c2cnccc2c(C)c2c1[nH]c1ccc(O)cc12 | 8.11
C=C1C(=O)C([Si](C)(C)C)=C2C=C(C)C3(CC3)C12C (stereo unspecified) | 44.2
NC(=O)c1cc2ccccc2oc1=Nc1ccccc1 | > 100

system: ACHN renal; experiment: inhibition of tumour cell growth, NCI panel, 48 h

Compound | TGI [µM]
C=C(c1ccccc1)C1ON(C)CCc2cc(OC)c(OC)cc21 (stereo unspecified) | > 100
Cc1c2cnccc2c(C)c2c1[nH]c1ccc(O)cc12 | 8.29
C=C1C(=O)C([Si](C)(C)C)=C2C=C(C)C3(CC3)C12C (stereo unspecified) | > 100
NC(=O)c1cc2ccccc2oc1=Nc1ccccc1 | > 100

system: UACC-62 melanoma; experiment: inhibition of tumour cell growth, NCI panel, 48 h

Compound | TGI [µM]
C=C(c1ccccc1)C1ON(C)CCc2cc(OC)c(OC)cc21 (stereo unspecified) | > 100
Cc1c2cnccc2c(C)c2c1[nH]c1ccc(O)cc12 | > 10
C=C1C(=O)C([Si](C)(C)C)=C2C=C(C)C3(CC3)C12C (stereo unspecified) | > 100
NC(=O)c1cc2ccccc2oc1=Nc1ccccc1 | > 100

system: SW-620 colon; experiment: inhibition of tumour cell growth, NCI panel, 48 h

Compound | TGI [µM]
C=C(c1ccccc1)C1ON(C)CCc2cc(OC)c(OC)cc21 (stereo unspecified) | > 100
Cc1c2cnccc2c(C)c2c1[nH]c1ccc(O)cc12 | 7.03
C=C1C(=O)C([Si](C)(C)C)=C2C=C(C)C3(CC3)C12C (stereo unspecified) | > 100
NC(=O)c1cc2ccccc2oc1=Nc1ccccc1 | > 100

system: HS 578T breast; experiment: inhibition of tumour cell growth, NCI panel, 48 h

Compound | TGI [µM]
C=C(c1ccccc1)C1ON(C)CCc2cc(OC)c(OC)cc21 (stereo unspecified) | > 100
Cc1c2cnccc2c(C)c2c1[nH]c1ccc(O)cc12 | > 10
C=C1C(=O)C([Si](C)(C)C)=C2C=C(C)C3(CC3)C12C (stereo unspecified) | > 100
NC(=O)c1cc2ccccc2oc1=Nc1ccccc1 | > 100

system: HCC-2998 colon; experiment: inhibition of tumour cell growth, NCI panel, 48 h

Compound | TGI [µM]
C=C(c1ccccc1)C1ON(C)CCc2cc(OC)c(OC)cc21 (stereo unspecified) | > 100
Cc1c2cnccc2c(C)c2c1[nH]c1ccc(O)cc12 | > 10
